The values below come from patent publication US8518953B2, “Aminopyrimidines useful as inhibitors of protein kinases” (Vertex Pharmaceuticals Incorporated, priority 2007, dated 2013).

In test [1] the test system is E16 rat hippocampal or cortical neurons. The test is described as follows: Axonal Branching Assay. Format: cell-based. The method, then:
Compounds are tested for the ability to enhance axonal branching in E16 rat hippocampal or cortical neurons. 1 mg/ml stock of PDL is diluted into 100 μg/ml in DI water. The glass coverslips are coated for at least 1 hour at 37° C. prior to doing the dissection. PDL is aspirated and the plates are rinsed with PBS and air-dried in hood. Cortical or hippocampal lobes are combined with 9 mL of Base media (Neurobasal+Pen/Strep) and put on ice. 1 mL of 10× trypsin solution is added and the mixture is swirled gently. The tissue is then digested via incubation in a 37° C. waterbath for 20 minutes. After 20 minutes, 10 μl/ml DNase (100 μL DNase) is added and the mixture is incubated for another 5 minutes. The cells are spun at 1000 rpm for 1 minute. The enzyme solution is then removed without removing any of the brain fragments sitting on the bottom. The solid is washed 3 times with Wash media (Neurobasal+10% and Pen/Strep). […] The cells are counted in a hemacytometer and seeded at 5000-10000 cells/well in a 24 well plate with glass coverslip inserts coated with PDL. […] Images are captured at 10× and 20× on an upright microscope and axonal branching is determined by quantification of area under threshold fluorescence of neurofilament Alexa 488 per cell. Dendritic branching is determined by quantification of area under threshold fluorescence of MAP2 Alexa 568 per cell. […]

Another test deals with T1, GSK-3β (AA 1-420) (Homo sapiens, UniProt P49841).
T1 construct: GSK-3β (AA 1-420)
T1 sequence (P49841 whole entry, species assumed, the tested form may be a part): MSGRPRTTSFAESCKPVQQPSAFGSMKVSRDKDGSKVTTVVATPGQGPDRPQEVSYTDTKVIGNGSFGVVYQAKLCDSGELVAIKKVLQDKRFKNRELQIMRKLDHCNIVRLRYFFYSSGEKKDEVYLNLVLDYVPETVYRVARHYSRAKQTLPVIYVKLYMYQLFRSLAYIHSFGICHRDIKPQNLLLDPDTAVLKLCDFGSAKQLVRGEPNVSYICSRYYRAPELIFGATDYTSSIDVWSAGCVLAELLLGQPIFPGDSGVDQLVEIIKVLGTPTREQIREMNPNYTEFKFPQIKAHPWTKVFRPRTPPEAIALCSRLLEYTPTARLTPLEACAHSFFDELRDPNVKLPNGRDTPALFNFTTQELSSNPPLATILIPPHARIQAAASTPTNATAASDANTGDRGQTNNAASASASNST
The test is described as follows: GSK-3 Inhibition Assay (standard coupled enzyme system). In kind it is biochemical. The conditions noted are these: 20 μM ATP, 300 μM peptide, 20 nM GSK-3β, 30° C. The method, then: Compounds of the present invention were screened for their ability to inhibit GSK-3β (AA 1-420) activity using a standard coupled enzyme system (Fox et al., Protein Sci. 1998, 7, 2249). Reactions were carried out in a solution containing 100 mM HEPES (pH 7.5), 10 mM MgCl2, 25 mM NaCl, 300 μM NADH, 1 mM DTT and 1.5% DMSO. Final substrate concentrations in the assay were 20 μM ATP (Sigma Chemicals, St Louis, Mo.) and 300 μM peptide (American Peptide, Sunnyvale, Calif.). Reactions were carried out at 30° C. and 20 nM GSK-3β. Final concentrations of the components of the coupled enzyme system were 2.5 mM phosphoenolpyruvate, 300 μM NADH, 30 μg/ml pyruvate kinase and 10 μg/ml lactate dehydrogenase.
An assay stock buffer solution was prepared containing all of the reagents listed above with the exception of ATP and the test compound of the present invention. The assay stock buffer solution (175 μl) was incubated in a 96 well plate with 5 μl of the test compound of the present invention at final concentrations spanning 0.002 μM to 30 μM at 30° C. for 10 min. […] Rates of reaction were obtained using a Molecular Devices Spectramax plate reader (Sunnyvale, Calif.) over 10 min at 30° C. The Ki values were determined from the rate data as a function of inhibitor concentration.

For `Cc1nc(-c2ccccc2Cl)nc(Nc2n[nH]c3ncc(F)cc23)c1C` [Compound I-1, N-(2-(2-chlorophenyl)-5,6-dimethylpyrimidin-4-yl)-5-fluoro-1H-pyrazolo[3,4-b]pyridin-3-amine], the “axonal and dendritic branching” value in test [1] (10 nM, 7 days) was “increased axonal and dendritic branching”. Besides, in test [1] (concentrations that have been shown to induce β-catenin), the axon growth entry was “axon growth was inhibited”. For the same compound, on GSK-3β (AA 1-420), the inhibition constant Ki – broadly, a measure of affinity in units of concentration, obtained from inhibition or displacement – was below 5 nM.
